In ChEMBL document CHEMBL4507273 (2021):

Legend:
[1] = target: Serine/threonine-protein kinase SBK1 (Homo sapiens) (UniProt Q52WX2); conditions: Compound concentration 1000.0 nM
[2] = target: 5-hydroxytryptamine receptor 1B (Homo sapiens, UniProt P28222); experiment: GPCRScan assay: inhibition of 5-HT1B; parameters: radioligand conc. used [nm] 0.6 – 1.5, parental cells stable HEK
[3] = target: Uncharacterized serine/threonine-protein kinase SBK3 (Homo sapiens) (UniProt P0C264); conditions: Compound concentration 1000.0 nM
[4] = target: Sodium-dependent dopamine transporter (Homo sapiens, UniProt Q01959); conditions: Compound concentration 10.0 uM
[5] = target: Ephrin type-A receptor 5 (Homo sapiens) (UniProt P54756); conditions: Compound concentration 1000.0 nM
D(2) dopamine receptor = D(2) dopamine receptor (Homo sapiens, UniProt P14416); conditions: Compound concentration 10.0 uM
Chain of D(2) dopamine receptor (P14416 whole entry, canonical isoform): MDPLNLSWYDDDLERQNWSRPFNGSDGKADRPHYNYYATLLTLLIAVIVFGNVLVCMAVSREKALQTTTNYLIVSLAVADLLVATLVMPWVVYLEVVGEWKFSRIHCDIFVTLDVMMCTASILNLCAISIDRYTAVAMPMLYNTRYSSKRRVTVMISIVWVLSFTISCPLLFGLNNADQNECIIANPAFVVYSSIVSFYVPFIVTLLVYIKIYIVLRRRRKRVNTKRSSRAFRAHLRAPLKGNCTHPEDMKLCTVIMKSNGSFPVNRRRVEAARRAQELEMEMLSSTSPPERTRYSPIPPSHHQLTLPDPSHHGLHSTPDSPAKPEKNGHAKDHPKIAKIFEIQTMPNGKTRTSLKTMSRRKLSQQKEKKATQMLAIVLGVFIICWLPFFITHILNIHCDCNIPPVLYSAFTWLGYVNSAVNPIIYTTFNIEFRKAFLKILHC

[6] = target: Casein kinase I isoform gamma-1 (Homo sapiens) (UniProt Q9HCP0); conditions: Compound concentration 1000.0 nM
[7] = target: Receptor-type tyrosine-protein kinase FLT3 (Homo sapiens) (UniProt P36888); conditions: Compound concentration 1000.0 nM
[8] = target: Serine/threonine-protein kinase 17B (Homo sapiens) (UniProt O94768); conditions: Compound concentration 1000.0 nM
[9] = target: cAMP-dependent protein kinase catalytic subunit PRKX (Homo sapiens) (UniProt P51817); conditions: Compound concentration 1000.0 nM
[10] = target: LIM domain kinase 1 (Homo sapiens) (UniProt P53667); conditions: Compound concentration 1000.0 nM
[11] = target: Mitogen-activated protein kinase 4 (Homo sapiens) (UniProt P31152); conditions: Compound concentration 1000.0 nM
[12] = test system: Leucine-rich repeat serine/threonine-protein kinase 2 (Homo sapiens), Q5S007 [G2019S]; conditions: Compound concentration 1000.0 nM
[13] = target: D(4) dopamine receptor (Homo sapiens) (UniProt P21917); conditions: Compound concentration 10.0 uM
[14] = target: Serine/threonine-protein kinase PLK3 (Homo sapiens) (UniProt Q9H4B4); conditions: Compound concentration 1000.0 nM
[15] = target: Receptor-interacting serine/threonine-protein kinase 1 (Homo sapiens) (UniProt Q13546); conditions: Compound concentration 1000.0 nM
[16] = target: Serine/threonine-protein kinase PRP4 homolog (Homo sapiens) (UniProt Q13523); conditions: Compound concentration 1000.0 nM
Chain of Serine/threonine-protein kinase PRP4 homolog (Homo sapiens) (Q13523 whole entry): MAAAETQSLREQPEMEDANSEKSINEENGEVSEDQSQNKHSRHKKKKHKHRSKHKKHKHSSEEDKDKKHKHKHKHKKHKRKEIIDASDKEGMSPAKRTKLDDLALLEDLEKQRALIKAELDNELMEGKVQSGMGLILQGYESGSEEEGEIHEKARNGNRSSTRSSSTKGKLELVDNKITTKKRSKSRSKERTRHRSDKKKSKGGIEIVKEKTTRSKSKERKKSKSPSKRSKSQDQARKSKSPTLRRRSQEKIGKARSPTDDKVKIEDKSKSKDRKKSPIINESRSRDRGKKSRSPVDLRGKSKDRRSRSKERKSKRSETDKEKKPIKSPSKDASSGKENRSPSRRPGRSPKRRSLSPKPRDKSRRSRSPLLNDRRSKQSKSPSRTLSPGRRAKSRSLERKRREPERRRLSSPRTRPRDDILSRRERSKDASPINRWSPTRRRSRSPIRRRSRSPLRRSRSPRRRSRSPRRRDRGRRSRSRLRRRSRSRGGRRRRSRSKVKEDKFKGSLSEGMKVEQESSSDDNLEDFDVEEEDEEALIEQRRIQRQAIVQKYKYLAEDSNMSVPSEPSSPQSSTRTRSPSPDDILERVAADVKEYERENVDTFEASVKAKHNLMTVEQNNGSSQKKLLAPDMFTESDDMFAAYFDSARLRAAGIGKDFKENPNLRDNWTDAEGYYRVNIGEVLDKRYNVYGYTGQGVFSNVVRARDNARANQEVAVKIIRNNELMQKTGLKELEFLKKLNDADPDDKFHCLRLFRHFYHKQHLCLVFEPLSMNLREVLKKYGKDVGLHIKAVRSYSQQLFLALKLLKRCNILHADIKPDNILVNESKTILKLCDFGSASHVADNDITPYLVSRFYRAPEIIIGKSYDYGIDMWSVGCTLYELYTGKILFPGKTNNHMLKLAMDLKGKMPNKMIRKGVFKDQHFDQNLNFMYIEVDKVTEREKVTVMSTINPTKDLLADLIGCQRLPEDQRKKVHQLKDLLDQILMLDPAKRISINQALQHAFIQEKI

[17] = target: Glycogen synthase kinase-3 alpha (Homo sapiens) (UniProt P49840); conditions: Compound concentration 1000.0 nM
[18] = target: Tyrosine-protein kinase Fgr (Homo sapiens) (UniProt P09769); conditions: Compound concentration 1000.0 nM
[19] = target: Beta-2 adrenergic receptor (Homo sapiens) (UniProt P07550); conditions: Compound concentration 10.0 uM
[20] = target: Tyrosine-protein kinase BTK (Homo sapiens) (UniProt Q06187); conditions: Compound concentration 1000.0 nM
[21] = test system: Receptor-type tyrosine-protein kinase FLT3 (Homo sapiens), P36888 [D835Y]; conditions: Compound concentration 1000.0 nM
[22] = target: Bone morphogenetic protein receptor type-2 (Homo sapiens) (UniProt Q13873); conditions: Compound concentration 1000.0 nM
[23] = target: Serine/threonine-protein kinase PLK2 (Homo sapiens) (UniProt Q9NYY3); conditions: Compound concentration 1000.0 nM
[24] = target: Hepatocyte growth factor receptor (Homo sapiens) (UniProt P08581); conditions: Compound concentration 1000.0 nM
[25] = test system: Epidermal growth factor receptor (Homo sapiens), P00533 [L858R]; conditions: Compound concentration 1000.0 nM
[26] = test system: ALK tyrosine kinase receptor (Homo sapiens), Q9UM73 [L1196M]; conditions: Compound concentration 1000.0 nM
Chain of ALK tyrosine kinase receptor (Homo sapiens), Q9UM73 [L1196M] (Q9UM73 whole entry L1196M, looked up): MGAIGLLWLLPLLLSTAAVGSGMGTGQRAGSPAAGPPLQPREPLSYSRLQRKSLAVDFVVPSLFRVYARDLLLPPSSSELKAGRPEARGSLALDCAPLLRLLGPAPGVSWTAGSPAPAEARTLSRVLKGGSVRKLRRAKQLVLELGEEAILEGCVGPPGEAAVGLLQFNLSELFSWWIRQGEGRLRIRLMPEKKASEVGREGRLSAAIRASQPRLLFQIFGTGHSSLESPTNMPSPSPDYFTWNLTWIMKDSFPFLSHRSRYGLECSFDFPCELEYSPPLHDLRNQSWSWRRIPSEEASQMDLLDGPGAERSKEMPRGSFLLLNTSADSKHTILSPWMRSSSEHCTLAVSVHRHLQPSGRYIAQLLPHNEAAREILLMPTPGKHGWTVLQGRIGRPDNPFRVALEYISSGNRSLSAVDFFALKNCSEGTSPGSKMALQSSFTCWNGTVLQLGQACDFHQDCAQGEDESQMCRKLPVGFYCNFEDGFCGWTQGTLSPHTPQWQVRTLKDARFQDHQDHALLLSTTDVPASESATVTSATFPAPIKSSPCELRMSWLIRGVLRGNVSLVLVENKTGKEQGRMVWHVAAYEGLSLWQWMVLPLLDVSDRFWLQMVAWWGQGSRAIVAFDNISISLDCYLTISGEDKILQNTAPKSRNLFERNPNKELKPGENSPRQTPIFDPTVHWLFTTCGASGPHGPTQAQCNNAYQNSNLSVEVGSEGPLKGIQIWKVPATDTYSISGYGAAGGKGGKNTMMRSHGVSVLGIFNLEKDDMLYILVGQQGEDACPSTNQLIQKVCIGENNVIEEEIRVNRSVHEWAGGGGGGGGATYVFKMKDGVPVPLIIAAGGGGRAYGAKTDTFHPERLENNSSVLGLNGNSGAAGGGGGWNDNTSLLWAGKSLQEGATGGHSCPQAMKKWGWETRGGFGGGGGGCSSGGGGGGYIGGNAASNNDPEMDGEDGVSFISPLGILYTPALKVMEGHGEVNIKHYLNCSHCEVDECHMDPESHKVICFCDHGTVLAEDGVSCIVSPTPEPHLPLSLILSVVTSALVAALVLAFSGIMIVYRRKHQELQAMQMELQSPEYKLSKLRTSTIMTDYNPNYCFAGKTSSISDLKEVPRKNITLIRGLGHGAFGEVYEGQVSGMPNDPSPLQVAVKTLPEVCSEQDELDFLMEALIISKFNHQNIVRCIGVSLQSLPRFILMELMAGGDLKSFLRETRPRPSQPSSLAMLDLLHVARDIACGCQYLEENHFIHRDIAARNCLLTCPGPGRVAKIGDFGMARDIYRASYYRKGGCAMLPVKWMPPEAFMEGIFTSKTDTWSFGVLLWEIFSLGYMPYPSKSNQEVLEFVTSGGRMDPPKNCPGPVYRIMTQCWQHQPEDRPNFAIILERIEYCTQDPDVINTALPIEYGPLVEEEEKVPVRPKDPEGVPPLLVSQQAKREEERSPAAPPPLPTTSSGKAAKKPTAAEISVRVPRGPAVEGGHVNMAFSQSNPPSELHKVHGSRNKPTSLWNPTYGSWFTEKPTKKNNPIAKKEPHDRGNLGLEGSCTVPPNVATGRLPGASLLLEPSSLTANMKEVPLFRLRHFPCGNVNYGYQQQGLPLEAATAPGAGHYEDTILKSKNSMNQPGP

[27] = target: Mitogen-activated protein kinase 8 (Homo sapiens) (UniProt P45983); conditions: Compound concentration 1000.0 nM
Chain of Mitogen-activated protein kinase 8 (Homo sapiens) (P45983 whole entry): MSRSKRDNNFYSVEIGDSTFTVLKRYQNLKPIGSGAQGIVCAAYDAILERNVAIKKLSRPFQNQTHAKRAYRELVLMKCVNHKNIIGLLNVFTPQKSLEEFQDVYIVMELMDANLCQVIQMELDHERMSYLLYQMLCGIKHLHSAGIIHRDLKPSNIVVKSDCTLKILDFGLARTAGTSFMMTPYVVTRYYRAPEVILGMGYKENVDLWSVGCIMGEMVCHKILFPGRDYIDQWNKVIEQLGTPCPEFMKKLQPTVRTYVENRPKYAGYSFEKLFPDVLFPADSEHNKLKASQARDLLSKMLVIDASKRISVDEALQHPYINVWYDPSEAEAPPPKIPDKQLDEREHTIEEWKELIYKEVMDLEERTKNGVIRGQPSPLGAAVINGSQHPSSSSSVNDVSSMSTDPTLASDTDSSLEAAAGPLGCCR

[28] = target: Receptor tyrosine-protein kinase erbB-2 (Homo sapiens) (UniProt P04626); conditions: Compound concentration 1000.0 nM
[29] = test system: Tyrosine-protein kinase ABL1 (Homo sapiens), P00519 [M351T]; conditions: Compound concentration 1000.0 nM
[30] = target: Sigma non-opioid intracellular receptor 1 (Homo sapiens) (UniProt Q99720); conditions: Compound concentration 10.0 uM
[31] = target: Calcium/calmodulin-dependent protein kinase type 1G (Homo sapiens) (UniProt Q96NX5); conditions: Compound concentration 1000.0 nM
[32] = target: Tyrosine-protein kinase Tec (Homo sapiens) (UniProt P42680); conditions: Compound concentration 1000.0 nM
Chain of Tyrosine-protein kinase Tec (Homo sapiens) (P42680 whole entry): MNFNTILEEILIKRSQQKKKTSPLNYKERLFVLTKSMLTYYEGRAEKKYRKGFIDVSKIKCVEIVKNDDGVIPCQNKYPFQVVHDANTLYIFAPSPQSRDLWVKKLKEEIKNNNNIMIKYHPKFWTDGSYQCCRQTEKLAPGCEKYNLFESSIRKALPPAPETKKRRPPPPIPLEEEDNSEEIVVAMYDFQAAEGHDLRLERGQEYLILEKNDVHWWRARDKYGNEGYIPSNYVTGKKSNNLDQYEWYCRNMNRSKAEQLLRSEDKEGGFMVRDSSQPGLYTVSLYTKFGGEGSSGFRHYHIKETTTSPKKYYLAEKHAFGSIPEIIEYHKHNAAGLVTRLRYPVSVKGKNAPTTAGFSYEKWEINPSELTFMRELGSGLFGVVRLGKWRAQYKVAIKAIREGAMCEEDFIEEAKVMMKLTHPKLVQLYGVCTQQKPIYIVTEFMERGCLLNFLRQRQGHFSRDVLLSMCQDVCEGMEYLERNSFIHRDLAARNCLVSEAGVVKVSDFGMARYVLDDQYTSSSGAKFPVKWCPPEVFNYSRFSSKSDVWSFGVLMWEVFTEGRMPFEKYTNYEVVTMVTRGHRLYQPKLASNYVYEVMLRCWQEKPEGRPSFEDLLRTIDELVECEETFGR

[33] = target: Serine/threonine-protein kinase MRCK gamma (Homo sapiens) (UniProt Q6DT37); conditions: Compound concentration 1000.0 nM
[34] = target: Dual specificity mitogen-activated protein kinase kinase 6 (Homo sapiens) (UniProt P52564); conditions: Compound concentration 1000.0 nM
[35] = target: Serine/threonine-protein kinase SIK2 (Homo sapiens) (UniProt Q9H0K1); conditions: Compound concentration 1000.0 nM
[36] = target: Histamine H3 receptor (Homo sapiens) (UniProt Q9Y5N1); conditions: Compound concentration 10.0 uM
Chain of Histamine H3 receptor (Homo sapiens) (Q9Y5N1 whole entry): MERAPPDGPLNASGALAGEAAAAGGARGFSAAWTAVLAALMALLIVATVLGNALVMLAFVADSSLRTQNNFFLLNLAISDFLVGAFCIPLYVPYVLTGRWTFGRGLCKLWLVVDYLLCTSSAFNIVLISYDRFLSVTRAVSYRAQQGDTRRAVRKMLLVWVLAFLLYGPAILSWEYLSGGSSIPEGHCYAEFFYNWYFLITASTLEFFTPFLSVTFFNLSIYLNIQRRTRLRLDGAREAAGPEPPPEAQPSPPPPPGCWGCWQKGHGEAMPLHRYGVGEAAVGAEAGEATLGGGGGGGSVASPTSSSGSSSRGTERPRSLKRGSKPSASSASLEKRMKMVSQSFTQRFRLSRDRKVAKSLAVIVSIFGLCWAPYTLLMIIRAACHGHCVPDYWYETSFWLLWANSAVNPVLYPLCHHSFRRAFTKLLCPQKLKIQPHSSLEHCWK

[37] = target: Mitogen-activated protein kinase kinase kinase kinase 1 (Homo sapiens) (UniProt Q92918); conditions: Compound concentration 1000.0 nM
[38] = target: Homeodomain-interacting protein kinase 2 (Homo sapiens) (UniProt Q9H2X6); conditions: Compound concentration 1000.0 nM
[39] = target: Phosphatidylinositol 3-kinase C2 domain-containing subunit gamma (Homo sapiens) (UniProt O75747); conditions: Compound concentration 1000.0 nM
[40] = target: Serine/threonine-protein kinase Nek11 (Homo sapiens) (UniProt Q8NG66); conditions: Compound concentration 1000.0 nM
[41] = target: Phosphatidylinositol 4,5-bisphosphate 3-kinase catalytic subunit delta isoform (Homo sapiens) (UniProt O00329); conditions: Compound concentration 1000.0 nM
[42] = target: Mast/stem cell growth factor receptor Kit (Homo sapiens) (UniProt P10721); conditions: Compound concentration 1000.0 nM
[43] = target: Mitogen-activated protein kinase kinase kinase 2 (Homo sapiens) (UniProt Q9Y2U5); conditions: Compound concentration 1000.0 nM
[44] = target: 1-phosphatidylinositol 3-phosphate 5-kinase (Homo sapiens) (UniProt Q9Y2I7); conditions: Compound concentration 1000.0 nM

Chain of 5-hydroxytryptamine receptor 1B (P28222 whole entry): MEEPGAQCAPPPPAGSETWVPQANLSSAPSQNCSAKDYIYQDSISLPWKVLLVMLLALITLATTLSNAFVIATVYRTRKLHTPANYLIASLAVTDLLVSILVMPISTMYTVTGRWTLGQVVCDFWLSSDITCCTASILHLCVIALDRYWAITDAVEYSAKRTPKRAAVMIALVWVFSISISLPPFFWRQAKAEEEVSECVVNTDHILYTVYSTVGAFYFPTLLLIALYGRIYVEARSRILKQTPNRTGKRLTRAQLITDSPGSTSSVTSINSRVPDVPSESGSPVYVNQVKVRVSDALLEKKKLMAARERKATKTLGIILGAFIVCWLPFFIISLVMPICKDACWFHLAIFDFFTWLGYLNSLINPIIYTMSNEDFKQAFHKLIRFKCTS

CNCc1ccccc1-c1csc([C@@H](C)Nc2nc(C)nc3cc(OC)c(OC)cc23)c1 [BAY-293]
residual activity [1]: 100% | Ki ([2]; read-out: Ki): 1410 nM | Ki ([2]; read-out: pKi (converted)): 1350 nM | residual activity [3]: 100% | inhibition [4]: 77.2% | residual activity [5]: 88% | inhibition (D(2) dopamine receptor): 32.3% | residual activity [6]: 88% | residual activity [7]: 97% | residual activity [8]: 92% | residual activity [9]: 67% | residual activity [10]: 99% | residual activity [11]: 94% | residual activity [12]: 72% | inhibition [13]: 56.7% | residual activity [14]: 91% | residual activity [15]: 97% | residual activity [16]: 96% | residual activity [17]: 100% | residual activity [18]: 100% | inhibition [19]: 12.1% | residual activity [20]: 90% | residual activity [21]: 84% | residual activity [22]: 100% | residual activity [23]: 82% | residual activity [24]: 95% | residual activity [25]: 82% | residual activity [26]: 100% | residual activity [27]: 66% | residual activity [28]: 84% | residual activity [29]: 74% | inhibition [30]: 22.6% | residual activity [31]: 93% | residual activity [32]: 100% | residual activity [33]: 98% | residual activity [34]: 86% | residual activity [35]: 100% | inhibition [36]: 26.7% | residual activity [37]: 83% | residual activity [38]: 86% | residual activity [39]: 59% | residual activity [40]: 100% | residual activity [41]: 75% | residual activity [42]: 81% | residual activity [43]: 87% | residual activity [44]: 100%

CNCc1ccccc1-c1csc([C@H](C)Nc2nc(C)nc3cc(OC)c(OC)cc23)c1 [BAY-294]
residual activity [1]: 100% | Ki ([2]; read-out: Ki): 1760 nM | residual activity [3]: 100% | inhibition [4]: 70.3% | residual activity [5]: 100% | inhibition (D(2) dopamine receptor): 50.6% | residual activity [6]: 92% | residual activity [7]: 100% | residual activity [8]: 100% | residual activity [9]: 76% | residual activity [10]: 100% | residual activity [11]: 95% | residual activity [12]: 84% | inhibition [13]: 31% | residual activity [14]: 87% | residual activity [15]: 100% | residual activity [16]: 100% | residual activity [17]: 100% | residual activity [18]: 100% | inhibition [19]: 18.2% | residual activity [20]: 89% | residual activity [21]: 100% | residual activity [22]: 100% | residual activity [23]: 83% | residual activity [24]: 100% | residual activity [25]: 100% | residual activity [26]: 93% | residual activity [27]: 81% | residual activity [28]: 100% | residual activity [29]: 85% | inhibition [30]: 49% | residual activity [31]: 96% | residual activity [32]: 100% | residual activity [33]: 100% | residual activity [34]: 100% | residual activity [35]: 100% | inhibition [36]: 24.6% | residual activity [37]: 100% | residual activity [38]: 76% | residual activity [39]: 100% | residual activity [40]: 100% | residual activity [41]: 100% | residual activity [42]: 70% | residual activity [43]: 100% | residual activity [44]: 100%
